In article PMC5607274, “An iterative compound screening contest method for identifying target protein inhibitors using the tyrosine-protein kinase Yes” (Scientific Reports, 2017):

Target: T1, human recombinant Yes [a.a. 2–543 (end)] (Homo sapiens, UniProt P07947)
T1 construct: human recombinant Yes [a.a; 2–543 (end)]; purchased BPS Bioscience 40488
Assay: ADP-Glo kinase assay, inhibition rates of Yes phosphorylation activity (first and second screening)
Type: biochemical
Conditions: first screening; mean of n = 4 wells; 10 μmol L−1 compound
Outline: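 Hits from a first pass were rescreened after re-dissolution from fresh powder. The first pass reported the mean inhibition rate of quadruplicate wells per compound. Activity was that of recombinant human Yes [a.a. 2–543] kinase, read out with the ADP-Glo ADP-detection method.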

T1 sequence (P07947 2-543): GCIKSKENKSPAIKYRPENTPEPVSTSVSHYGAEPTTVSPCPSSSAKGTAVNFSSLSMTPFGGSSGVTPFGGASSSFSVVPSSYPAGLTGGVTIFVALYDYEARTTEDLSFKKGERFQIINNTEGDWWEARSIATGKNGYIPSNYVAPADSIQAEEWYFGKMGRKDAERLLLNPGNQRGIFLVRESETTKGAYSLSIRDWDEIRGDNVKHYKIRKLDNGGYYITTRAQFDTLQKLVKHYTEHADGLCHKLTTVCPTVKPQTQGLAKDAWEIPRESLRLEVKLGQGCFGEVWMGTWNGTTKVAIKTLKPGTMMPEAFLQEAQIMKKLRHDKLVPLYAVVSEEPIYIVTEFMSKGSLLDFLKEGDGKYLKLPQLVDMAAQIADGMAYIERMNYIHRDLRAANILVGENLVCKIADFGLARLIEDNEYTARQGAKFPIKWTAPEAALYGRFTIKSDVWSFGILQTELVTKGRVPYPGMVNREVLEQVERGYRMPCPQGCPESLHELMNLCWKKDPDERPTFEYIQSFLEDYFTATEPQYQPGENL

SMILES | First screening IR (inhibition rate)
CCOC(=O)c1cc(-c2ccc(C#N)cc2)nc2c1c(C)nn2CCC#N [Compound Z56631499] | -7%
Clc1ccccc1/C=C1\CCCc2c1nc1ncnn1c2-c1ccccc1Cl [Compound Z56799005] | 6%
CC1CN(C(=O)OC(C)(C)C)C(C)CN1C(=O)Cc1csc(N2CCNC2=O)n1 (centres unmarked) [Compound Z1579018538] | 2%
CCN(CC)Cc1ccc(CNC(=O)c2ccccc2SCc2cscn2)cc1 [Compound Z283831144] | 33%
CN(C)S(=O)(=O)c1cccc(S(=O)(=O)N(C)C)c1 [Compound Z285953016] | 13%
CC(c1cc2ccccc2o1)N(C)c1ncnc2c1cnn2C (centres unmarked) [Compound Z328694162] | -5%
COc1cc(/C=N/Nc2ncnc3sc(C)c(C)c23)ccc1O [Compound Z49890548] | 21%
O=C(CCc1nnc2n(Cc3ccc(Cl)cc3)c(=O)c3ccccc3n12)NCCCN1CCOCC1 [Compound Z1157834172] | -1%
CNc1snc(C)c1C(=O)OCc1csc(-c2ccc(F)cc2)n1 [Compound Z166256344] | -7%
CC(NC(=O)c1ccc2[nH]cnc2n1)c1ccc(-c2cncnc2)cc1 (centres unmarked) [Compound Z1669230171] | 8%
CN(CC(=O)NC(=O)Nc1ccccc1F)C1CCCc2ccccc21 (centres unmarked) [Compound Z52744280] | -6%
CN(C)c1ccc(/C=c2/s/c(=C(/C#N)C(=O)NCCN3CCOCC3)n(Cc3ccco3)c2=O)cc1 [Compound Z48025165] | 27%
Fc1ccccc1-c1nc(SCc2cn3ccccc3n2)n[nH]1 [Compound Z17356722] | 0%
Cc1nc(C2CCCN(C(=O)c3cncc(-c4ccc5c(c4)CCO5)c3)C2)n[nH]1 (centres unmarked) [Compound Z1464424071] | -4%
Cc1cc(C(=O)Nc2ccc3c(c2)CCC3)ccc1-n1cnnn1 [Compound Z365246124] | 9%
O=C(/C=C/c1ccc(Br)o1)Nc1ccc(S(=O)(=O)C2CCCC2)cc1 [Compound Z364474850] | 0%
N#C/C(=C(/O)COC(=O)CCc1ccccc1)c1nc2ccccc2[nH]1 [Compound Z18264769] | 5%
Brc1ccc2nc(CNCc3cnc(-c4ccccc4)nc3)cn2c1 [Compound Z736057568] | 4%
Cc1cc(C(NCC(=O)Nc2cccc(C(=O)N(C)C)c2)C(C)C)c(C)s1 (centres unmarked) [Compound Z1592563027] | -2%
CC(C)(C)c1ccc(NC(=O)/C=C/c2cncc(O)c2)cc1 [Compound Z1574815119] | 6%
Cc1ccc(-c2csc3ncn(CC(=O)NC(CN4CCOCC4)c4ccccc4)c(=O)c23)cc1 (centres unmarked) [Compound Z146890674] | 4%

SMILES | First screening IR (inhibition rate)
Cc1sc2nc(-c3cccnc3)nc(NC3CC3)c2c1C [Compound Z31232965] | -3%
CCN(CC)S(=O)(=O)c1ccc(S(=O)(=O)N(C)C)cc1 [Compound Z45516173] | 3%
O=C(CN1CCN(C(=O)c2oc3ccccc3c2CSc2nccc(=O)[nH]2)CC1)N1CCCCC1 [Compound Z915764402] | -15%
Nc1ncnc(Nc2ccc(F)cc2)n1 [Compound Z56931701] | -4%
CC(Sc1ncn(-c2ccccc2)n1)c1nc(N)nc(N(C)C)n1 (centres unmarked) [Compound Z317369924] | -4%
CC(Sc1nc2nn(-c3ccccc3)c(=O)c-2c2n1CCCCC2)C(=O)NC(=O)NC1CCCCC1 (centres unmarked) [Compound Z18614891] | 7%
Cc1cc(=O)n2c3ccccc3n(CC(O)CN3CCN(CCOc4ccc(Cl)cc4)CC3)c2c1C#N (centres unmarked) [Compound Z57724322] | 7%
COc1ccc(Nc2nc(NCCN3CCOCC3)nc(Nc3ccc(OC)cc3)n2)cc1 [Compound Z57049315] | 6%
CCOc1cc(N2CCOCC2)c(OCC)cc1NC(=O)CSc1nnc(-c2ccc3c(c2)OCO3)n1-c1ccccc1 [Compound Z16253844] | -3%
O=C(CN1CCOCC1)N1CCN(Cn2nc(-c3ccccc3)n(-c3ccc(F)cc3)c2=S)CC1 [Compound Z238616284] | -5%
CN1CCC(=O)Nc2cc(C(=O)N(C)C3CCCN(c4ccccc4)C3=O)ccc21 (centres unmarked) [Compound Z1315092412] | 16%
COc1ccc(OC)c(-n2c(-c3ccc(C)cc3)nn(CN3CCN(c4cccc(Cl)c4)CC3)c2=S)c1 [Compound Z44116384] | 31%
O=S1(=O)C=C(Cl)C(Br)C1 (centres unmarked) [Compound Z57056476] | 1%
Cc1cc(N2CCN(C(=O)c3cc(Br)cn3C(C)C)CC2)n[nH]1 [Compound Z1784719533] | -5%
COc1ccc(CSCc2nc(N)nc(Nc3ccccc3C)n2)cc1F [Compound Z45342622] | 6%
CS(=O)(=O)c1ccc(S(=O)(=O)Cl)cc1 [Compound Z248485700] | 73%
NC(=O)c1ccc(CN(C2CC2)S(=O)(=O)c2cccc(Cl)c2)cc1 [Compound Z319895028] | -5%
O=C(c1ccc(Cl)c(S(=O)(=O)N2CCCCC2)c1)N1CCn2c1nc1ccccc12 [Compound Z204253774] | -4%
Cc1ccc(-n2cnc3c2CCNC3)cc1 [Compound Z1250487636] | -7%
c1ccc(-c2cn(Cc3nc(-c4cccs4)no3)nn2)cc1 [Compound Z1425793872] | 13%
Cc1cc(=O)[nH]c(SCC(=O)c2ccc3c(c2)NC(=O)CO3)n1 [Compound Z56863397] | -14%

SMILES | First screening IR (inhibition rate)
CCC1(c2ccc(F)cc2)NC(=O)N(CC(=O)Nc2ccc(C(=O)N(C)C)cc2)C1=O (centres unmarked) [Compound Z14224841] | 16%
C(=N/Nc1nc2ccccc2nc1-c1ccccc1)/c1ccc2nccnc2c1 [Compound Z969651240] | 11%
CC(SCc1nc(N)nc(N(C)C)n1)C(=O)Nc1ccc2c(c1)CCC2 (centres unmarked) [Compound Z197454542] | 5%
O=C(CCCSc1ccccc1)Nc1n[nH]c(-c2ccc(F)cc2)n1 [Compound Z108549090] | 6%
CCN(Cc1ccc2c(c1)OCCO2)C(=O)CSc1nnc(C(C)N(C)C)n1-c1ccc(F)cc1 (centres unmarked) [Compound Z97565837] | 15%
COc1ccc(CCNC(=O)C(C#N)c2nc3ccccc3nc2N2CCN(Cc3ccccc3)CC2)cc1 (centres unmarked) [Compound Z56851971] | 3%
O=C(NCc1nc2ccccc2[nH]1)c1ccc(OCc2ccccc2)cc1 [Compound Z26780414] | 5%
O=C(CN1CCN(c2cc(C(=O)N3CCOCC3)c3ccccc3n2)CC1)Nc1ccccc1Cl [Compound Z165229378] | 39%
CC(=O)NCCNC(=O)c1cc(-c2ccccc2)nc2c1cnn2Cc1ccccc1Cl [Compound Z228081748] | 50%
Cn1c(=O)[nH]c(=O)c2cc(C(=O)OCCNc3ncccc3C#N)cnc21 [Compound Z1633934253] | -1%
CCCN(CCC)S(=O)(=O)c1cccc(S(=O)(=O)N(C)C)c1 [Compound Z285950112] | -4%
CN(C(=O)c1cccc(NC(=O)c2ccc(Br)o2)c1)c1ccc(C#N)cc1 [Compound Z1269414490] | -5%
O=C(CSc1nc2ccccc2c(=O)n1CCCN1CCOCC1)Nc1ccc2ccccc2c1 [Compound Z19837911] | 46%
Cc1cc(C(=O)/C(C#N)=C2\C(=O)Nc3c(Cl)cc(Cl)cc32)c(C)n1-c1cccc(C(F)(F)F)c1 [Compound Z56789382] | -23%
CC(Nc1ccc([N+](=O)[O-])cc1[N+](=O)[O-])c1nnc2ccccn12 (centres unmarked) [Compound Z128086498] | -9%
COCCN(CCC#N)S(=O)(=O)c1ccccc1S(C)(=O)=O [Compound Z1116705979] | 42%
CC(C)n1ncc2c(C(=O)Nc3ccc(F)cc3Cl)cc(-c3ccco3)nc21 [Compound Z216417110] | 21%
CC1CC2CCCCC2N1c1ncnc2c1nnn2-c1ccccc1 (centres unmarked) [Compound Z1270084447] | 45%
NS(=O)(=O)c1ccc(S(=O)(=O)N2CCCC2)cc1 [Compound Z45415601] | -6%
Cc1ccc(NC2CCN(Cc3ccncc3)CC2)c(CN(C)C)c1 [Compound Z1642185485] | 2%
COc1ccc(-c2cc(-c3cc4ccccc4o3)nc3c2cnn3C(C)C)cc1 [Compound Z94751514] | 3%

Same assay, conditions: second screening, dissolved from fresh powder; n = 4; 10 μmol L−1 compound

SMILES | Second screening IR (inhibition rate)
CN(C)c1ccc(/C=c2/s/c(=C(/C#N)C(=O)NCCN3CCOCC3)n(Cc3ccco3)c2=O)cc1 [Compound Z48025165] | -4%
CS(=O)(=O)c1ccc(S(=O)(=O)Cl)cc1 [Compound Z248485700] | -3%
